Experimental data reported in PMC12808126 (Scientific Reports, 2025).

Experiments:
Assay type in all cases: cell-based
Conditions in all cases: to LPS control
TNF-α = TNF-α suppression assay
IL-6 = IL-6 suppression assay
IL-1β = IL-1β suppression assay

NS(=O)(=O)c1ccc(-n2nc(C(=O)NN3C(=O)CCC3=O)cc2-c2ccccc2)cc1 [AS-11, N-(2,5-dioxopyrrolidin-1-yl)−5-phenyl-1-(4-sulfamoylphenyl)−1H-pyrazole-3-carboxamide]
TNF-α release percentage inhibition (TNF-α): 91%
IL-6 release percentage inhibition (IL-6): 61%
IL-1β release percentage inhibition (IL-1β): 75%
